The values that follow come from ChEMBL document CHEMBL5223106, “Targeting non-alcoholic fatty liver disease: Design, X-ray co-crystal structure and synthesis of 'first-in-kind' inhibitors of serine/threonine kinase25” (Bioorg Med Chem Lett, 2022).

In data set [1] the target is T1, Serine/threonine-protein kinase 25 (Homo sapiens, UniProt O00506). As to the kind of experiment: Inhibition of STK25 (unknown origin) by FRET assay.
The target of data set [2] is T1, Serine/threonine-protein kinase 25. Put plainly: Inhibition of STK25 (unknown origin).
Target sequence in this assay (O00506 whole entry): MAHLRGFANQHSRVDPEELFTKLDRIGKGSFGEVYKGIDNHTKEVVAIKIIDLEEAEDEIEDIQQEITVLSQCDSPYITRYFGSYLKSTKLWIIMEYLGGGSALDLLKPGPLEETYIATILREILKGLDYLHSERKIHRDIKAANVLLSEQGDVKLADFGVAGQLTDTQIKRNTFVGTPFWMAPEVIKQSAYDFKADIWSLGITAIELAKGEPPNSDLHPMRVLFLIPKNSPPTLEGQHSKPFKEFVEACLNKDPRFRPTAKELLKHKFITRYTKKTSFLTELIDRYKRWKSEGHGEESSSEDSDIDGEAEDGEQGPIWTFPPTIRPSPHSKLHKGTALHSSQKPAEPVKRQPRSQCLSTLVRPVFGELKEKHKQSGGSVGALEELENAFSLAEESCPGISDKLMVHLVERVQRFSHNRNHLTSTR
Data set [3] in a line: Cytotoxicity against human HepG2 cells assessed as cell growth inhibition. Format: toxicity, cell-based.
A short description of data set [4]: Clearance in human microsomes. Format: ADME, Microsome.
In data set [5] the target is T1, Serine/threonine-protein kinase 25. As to the kind of experiment: Inhibition of STK25 (unknown origin) by cellular target engagement assay.
Target sequence in this assay (O00506 whole entry): as above
A short description of data set [6]: Efflux ratio of permeability across basolateral to apical side over apical to basolateral side in human Caco-2 cells. Format: ADME, cell-based.
Data set [7] can be described thus: Permeability of the compound in human Caco-2 cells at 10 uM. Format: ADME, cell-based. Conditions: caco-2, 10 µM.
Data set [8] can be described thus: Clearance in mouse microsomes. Type of data set: ADME, Microsome.
The nature of data set [9]: Plasma protein binding in mouse plasma assessed as free fraction. Format: ADME, cell-free.
Data set [10] is described as follows: Solubility of compound. Format: physicochemical.

Molecules are shown by their SMILES. The source made the active and inactive calls. No cut-off for these calls is given here.

Turning to `CC(C)(C)c1cc(NC(=O)c2ccc(S(=O)(=O)NC3CCCC3)cc2)n[nH]1`, in data set [1], the IC50 was found to be 865 nM.

`CCCCOc1ccc(C(=O)Nc2cc(C(C)(C)C)[nH]n2)cc1`: in data set [1], the half-maximal inhibitory concentration (IC50) came out at 616 nM.

As for `CC(C)(C)c1cc(NC(=O)c2nnn3c2CO[C@H](Cc2ccccc2)C3)n[nH]1`, in data set [1], the inhibition result was “inactive”.

As to `CC(C)(C)c1cc(NC(=O)c2nnn3c2CO[C@H](c2ccccc2)C3)n[nH]1`, the inhibition result in [1] was “inactive”.

Regarding `CC(C)(C)c1cc(NC(=O)c2nnn3c2CO[C@@H](Cc2ccccc2)C3)n[nH]1`, the inhibition entry in data set [1] was “inactive”.

Regarding `O=C(Nc1c[nH]nc1-c1nc2cc(CN3CCOCC3)ccc2[nH]1)NC1CC1` [AT-9283], half-maximal inhibition in [2] (IC50) was put at 460 nM.

Take `CC(C)(C)c1cc(NC(=O)c2nnn3c2CO[C@@H](c2ccccc2)C3)n[nH]1`: the inhibition result in data set [1] was “inactive”.

On to `Cc1ccc(C(=O)Nc2cc(C(C)(C)C)n[nH]2)cc1-n1cc(-c2cncc(N3CCOCC3)c2)nn1`, for which the IC50 in data set [2] was determined as 12 nM.

As to `CC(C)(C)c1cc(NC(=O)c2ccc(S(=O)(=O)N3CCCC3)cc2)n[nH]1`, the figures for the IC50 in [3], in [5] and in [1] were greater than 100000 nM, 211 nM and 228 nM, respectively. The results for the CL in data set [4] and in data set [8] were 75 mL/min/g and 145 mL/min/g, respectively. Moreover, in data set [6], the efflux ratio worked out at 1. In addition, the permeability in [7] is given as 100%. Besides, in data set [9], the fraction unbound was determined as 0.26. In data set [10], this molecule returned a solubility greater than 100 µM.

On to `CC(C)(C)c1cc(NC(=O)c2ccc(C(=O)N3CCCC3)cc2)n[nH]1`, for which, in data set [1], the IC50 amounted to 5160 nM.
